Source: patent US20130296230A1, “METHOD FOR TREATING MALARIA, METHOD FOR KILLING MALARIA PARASITE, AND USE OF THE METHODS” (RIKEN, priority 2010, published 2013)
Read-outs that look alike come from different tables or passages of the source.

Experiments:
[1] = tested on: falciparum malaria parasite FCR-3 strain; experiment: Assay for examining inhibition of development of P. falciparum (synchronized culture, Giemsa smear parasitaemia count); type: cell-based
Description: An FCR-3 strain of falciparum malaria parasite (P. falciparum) (reference document: Hatabu T, Takada T, Taguchi N, Suzuki M, Sato K, Kano S. (2005) Antimicrob Agents Chemother. 2005 February; 49(2):493-6.) was cultured in RPMI culture medium (Invitrogen/GIBCO) in accordance with the method of Trager and Jensen (reference document: Trager, W. 86 Jensen, J. B. (1976) Science 193, 673-675.). The FCR-3 strain is a strain which takes an approximately 40 hours to undergo one development/proliferation cycle of invasion of merozoites into erythrocytes, formation of ring forms, formation of trophozoites, formation of schizonts, release of mature merozoites, and invasion of the mature merozoites into erythrocytes. To the RPMI culture medium, 0.5 weight % AlubumaxI (Invitrogen), 25 mM HEPES, 24 mM sodium hydrogen carbonate, 0.5 g/L L-glutamine, 50 mg/L hypoxanthine, 25 μg/ml gentamicin (Sigma), and human erythrocytes with 5% hematocrit (provided by a healthy volunteer) were added. Further, synchronized culturing was carried out with the use of 5 weight % d-sorbitol (reference document: Lambros, C. 86 Vanderberg, J. P. (1979) J. Parasitol. 65, 418-420.) to synchronize developments of P. falciparum.
Effects of 2-APB (2-aminoethyl diphenylborinate) and LZ (luzindole) on intraerythrocytic falciparum malaria parasite development were examined with the use of a culture of falciparum malaria parasites in a ring form stage with initial parasitaemia of approximately 1%.
First, 500 μl of the culture was injected into each well of a tissue culture plate (24-well flat-bottom plate, Corning). 2-APB and LZ were dissolved in dimethyl sulfoxide (DMSO, HYBRI-MAX (Registered Trademark), Sigma) to be 10 mM and 100 mM in concentration, respectively. In this way, stock solutions of these compounds were prepared. The stock solutions were diluted with the RPMI culture medium, and were added to each well of the tissue culture plate in an amount to be a predetermined final concentration in the well. Further, DMSO was diluted with the PPMI culture medium and was added to each well of a tissue culture plate in an amount to be a predetermined final concentration in the well, and was used as a control. Culturing was carried out in each well for a predetermined period of time.
After elapse of the predetermined period of time, a drop of the erythrocytes-containing culture in each well of the tissue culture plate was smeared on a glass slide and giemsa-stained. The number of erythrocytes infected with falciparum malaria parasites out of 2000 erythrocytes was counted so as to determine parasitaemia.

[2] = tested on: falciparum malaria parasites (P. falciparum); experiment: Intracellular fluorescence Ca2+ imaging of P. falciparum in intraerythrocytic stage; type: cell-based
Description: Next, 1 ml of the culture of the erythrocytes that had been thus diluted was collected by centrifugation (at 1,000 g for five minutes at room temperature), then resuspended in 350 μL BSA(−) culture medium constituted by the same constituents as the BSA(−) culture medium mentioned above (hereinafter referred to as “erythrocyte resuspension (1)”).
Erythrocytes were then washed once with 10 mL BSA(−) culture medium (1000 g for 5 minutes at room temperature) and resuspended in 600 μL BSA(+) culture medium (the BSA(−) culture medium supplemented with 0.5 weight % Albumax 1 and 25 μg/mL gentamicin (Sigma)) (hereinafter referred to as “erythrocyte resuspension (2)”). Next, 100 μL of the erythrocyte resuspension (2) was inoculated in a 35 mm glass-bottomed dish (MatTek Corp.) coated with 0.1 mg/ml poly-L-lysine. After 30 minutes of incubation in an O2/CO2 incubator, suspended erythrocytes were gently washed with BSA(+) culture medium before collecting.
The glass-bottomed dish was then placed in a culture chamber in which an O2 level, a CO2 level, temperature, and humidity were maintained under conditions (O2 level: 5%, CO2 level, 5%, temperature: 37° C.) used for conventional in vitro culturing of malaria parasites.
The acquisition of the transparent images and acquisition of light emissions were carried out by the true spectral detection method developed by Leica Microsystems. The imaging was carried out at intervals of every 5 to 15 seconds for duration of 300 to 600 seconds. A fluorescence intensity of fluo4-AM was calculated by subtraction of background fluorescence (F) and normalized to minimum fluorescence during the imaging period (Fmin).

[3] = tested on: chloroquine-resistant strain K1 of falciparum malaria parasites (P. falciparum)
Description: (§1) An effect of 2-APB on intraerythrocytic development of a chloroquine-resistant strain K1 of falciparum malaria parasites (P. falciparum) was examined by synchronized culturing malaria parasites in ring forms with initial parasitaemia of approximately 2%. The culturing was terminated at 24 hours, 48 hours, and 72 hours from the start of the synchronized culturing, and thin smears of erythrocytes were prepared for falciparum malaria parasite counting. Culture medium with 100 μM DMSO or 100 μM 2-APB was replaced at 24 hours and 48 hours from the start of the synchronized culturing. […] Parasitaemia of ring forms (Rf), trophozoites (T), early schizonts (ES) and late schizonts (LS) is shown as mean±S.D. of 3 wells. Stages with parasitaemia of less than 0.1% are not shown.

[4] = tested on: falciparum malaria parasite FCR-3 strain
Text: (§2) Giemsa-stained smears were observed by Nikon Eclipse 80i microscope (Nikon), photographed by Nikon DXM 1200F camera (Nikon) and uploaded on a personal computer by digital photograph manager software (ACT-1; Nikon). In order to measure falciparum malaria parasite size, 50 falciparum malaria parasites were randomly selected, and areas containing these falciparum malaria parasites were manually delineated with lines on a screen. Area, perimeter, and maximum diameter of the falciparum malaria parasites cells was calculated by WinROOF software package Ver.5.8.1 (Mitani, Japan).
In order to quantitatively examine the effect of 2-APB on intraerythrocytic falciparum malaria parasite development, the area, perimeter and maximum diameter (hereinafter referred to collectively as “three parameters”) of falciparum malaria parasite cells were analyzed at 15 hours, 30 hours, and 40 hours from the start of the synchronized culturing. At 40 hours from the start of the synchronized culturing, only schizonts were analyzed.
In order to investigate an effect of 2-APB in the ring form stage, 100 μM 2-APB was added to falciparum malaria parasites that were being synchronized-cultured, and sizes of the falciparum malaria parasites were measured after 10 hours of culturing and after 20 hours of culturing. In some assays (“removed at 10 h” in (f) of FIG. 6), 100 μM 2-APB was added at start of the culturing and removed after 10 hours of culturing, and then sizes of falciparum malaria parasites were measured after 20 hours of culturing (see (f) of FIG. 6). […] Fifty falciparum malaria parasites were measured in each experimental group. P values compared with the controls (in the presence of DMSO) are given in each panel (two-tailed unpaired t test with Welch's correction).

[5] = tested on: chloroquine-resistant strain K1 of falciparum malaria parasites; conditions: 100 μM 2-APB; 24 hours
Text: as §2, §1

[6] = tested on: falciparum malaria parasites
Description: Specimens to be subjected to the electron microscopy were fixed for approximately 2 hours in 2.5% (V/V) glutaraldehyde buffered with 0.1 M phosphate buffer (pH 7.4, at 4° C.). The specimens were then post-fixed in 1% (w/V) osmium tetroxide for 1 hour.

[7] = tested on: falciparum malaria parasites; conditions: cultured 30 hours in presence of 2-APB
Description: ER-Tracker Red (Invitrogen). […] ER-Tracker Red was then added to the erythrocyte suspension so as to be 0.5 μM in final concentration, and the mixture was shaken at 200 rpm for 30 minutes at 37° C.

[8] = tested on: malaria parasites; conditions: cited from earlier work

Q: What does the source list for `CC(=O)NCCc1c(Cc2ccccc2)[nH]c2ccccc12` [LZ, luzindole]?
A: Intraerythrocytic falciparum malaria parasite development ([1]; 250 μM LZ, 20, 40, 70 hours): clearly inhibited; Developmental stage reached ([1]; 250 μM LZ, 20 hours): remained in a transition stage from ring forms to early trophozoites; Developmental stage reached ([1]; 250 μM LZ, 40 hours): most of the falciparum malaria parasites remained in the transition stage from ring forms to early trophozoites; Developmental stage reached ([1]; 250 μM LZ, 70 hours): remained in the transition stage from ring forms to early trophozoites even at 70 hours

Q: With `C/C=C(/C)C(=O)O[C@H]1C(C)=C2[C@H]([C@@H]1OC(=O)CCCCCCC)[C@@](C)(OC(C)=O)C[C@H](OC(=O)CCC)[C@@]1(O)[C@H]2OC(=O)[C@@]1(C)O` [Tg, thapsigargin] as the molecule, how does the “Ca2+ oscillations” value ([2]; pre-treatment with 2 μM Tg for 30 minutes, early ring forms and trophozoites) read?
A: The value was “blocked”.

Q: For `COc1ccc2c(c1)CC[C@@H]1[C@@H]2CC[C@]2(C)[C@@H](NCCCCCCN3C(=O)C=CC3=O)CC[C@@H]12` [U73122], which “Ca2+ oscillations” value ([2]; 5 minutes pre-treatment with 10 μM U73122, early ring form and trophozoite stages) is on record?
A: Its value is “almost completely blocked”.

Q: Which “Spontaneous Ca2+ oscillations” value ([2]; 100 μM 2-APB, early ring form and trophozoite stages) does the source give for `NCCOB(c1ccccc1)c1ccccc1` [2-APB, 2-aminoethyl diphenylborinate] here?
A: Its value is “almost completely blocked”.

Q: What about the “Ca2+ fluctuations” value ([2]; 100 μM 2-APB, late ring form, schizont and merozoite stages) of the same molecule?
A: Its value is “no notable effect”.

Q: And the “Amplitude of periodic Ca2+ fluctuations (mean max minus mean min F/Fmin)” value ([2]; 2-APB, late ring form, schizont, merozoite stages, quantitative analysis)?
A: Its value is “statistically significant effect of 2-APB was observed only in the merozoite stage”.

Q: And the “Intraerythrocytic development of falciparum malaria parasites” value ([1]; 100 μM 2-APB vs DMSO controls, 20, 30, 40 hours of synchronized culturing)?
A: The value was “clearly delayed”.

Q: What about the “Ring form parasitaemia at 45 hours” value ([1]; 2-APB added at late schizont stage (28 hours)) of the same molecule?
A: Its value is “significantly decreased”.

Q: What about the “Parasitaemia of ring forms at 40 hours” value ([1]; 2-APB added between trophozoite and early schizont stages (21 hours), compared with the removal cases) of the same molecule?
A: Its value is “greater effect”.

Q: And the “Number of merozoites formed in each schizont” value ([1]; 2-APB vs DMSO, 40 hours)?
A: The value was “significantly smaller”.

Q: And the Erythrocyte parasitaemia ([1]; 2-APB, medium replaced at 40 h, 70 hours from start of synchronized culturing)?
A: The Erythrocyte parasitaemia was “substantially zero”.

Q: And the Developmental stage reached ([1]; 2-APB, 20 hours from start of synchronized culturing)?
A: Its Developmental stage reached is “remained at the trophozoite stage”.

Q: What about the Parasite morphology ([1]; cultured in presence of 2-APB, up to 40 hours) of the same molecule?
A: The Parasite morphology was “abnormal morphology”.

Q: And the “Parasite development in 2-APB-pretreated erythrocytes” value ([1]; erythrocytes treated with 2-APB only in advance, 20 and 40 hours)?
A: The value was “could develop normally”.

Q: What about the Parasitaemia of trophozoites ([3]; 100 μM 2-APB, 24 hours) of the same molecule?
A: Its Parasitaemia of trophozoites is “tendency towards decreasing parasitaemia”.

Q: And the “Intraerythrocytic malaria parasite development” value ([3]; 2-APB vs DMSO, 48 hours)?
A: Its value is “delayed”.

Q: What about the “Number of erythrocytes infected with falciparum malaria parasite” value ([3]; 2-APB vs DMSO, 72 hours) of the same molecule?
A: The value was “much lesser”.

Q: What about the “Effect of 2-APB on the K-1 strain” value ([3]; 24 hour from start of assay) of the same molecule?
A: The value was “relatively weak”.

Q: And the “Area, perimeter and maximum diameter of parasite cells” value ([4]; 100 μM 2-APB present for 10 hours and 20 hours vs DMSO)?
A: Its value is “significantly smaller”.

Q: And the “Area, perimeter and maximum diameter of parasite cells” value ([4]; 100 μM 2-APB removed at 10 hours, measured at 20 hours vs DMSO)?
A: The value was “no statistically significant difference”.

Q: And the “Area, perimeter and maximum diameter of parasite cells” value ([4]; 100 μM 2-APB vs DMSO, 15, 30 and 40 hours)?
A: The value was “significant decreases”.

Q: What about the “Inhibitory effect by area, perimeter and maximum diameter of parasite cells” value [5] of the same molecule?
A: The value was “confirmed”.

Q: What about the “Ultrafine structure (electron micrographs)” value ([6]; 100 μM 2-APB, 30 hours) of the same molecule?
A: The value was “highly dense chromatin masses in the nucleus and highly dense degeneration”.

Q: What about the “Nuclear envelope and endoplasmic reticulum in electron micrographs” value ([6]; cultured in presence of 2-APB) of the same molecule?
A: Its value is “dilated nuclear envelope and endoplasmic reticulum”.

Q: What about the “Endoplasmic reticulum tracker signals” value [7] of the same molecule?
A: The value was “became broad and extended to the cytosol”.

Q: And the “Increase in concentration of calcium ion in cytoplasm brought about by melatonin” value ([8]; 2-APB administered to malaria parasites)?
A: Its value is “suppressed”.

Q: And the “Promotion of calcium discharge by 2-APB itself” value ([8]; malaria parasites)?
A: Its value is “no effect”.

Q: With `C/C=C/[C@H]1O[C@@](O)([C@@H](C)[C@H](O)[C@H](C)[C@H]2OC(=O)/C(OC)=C/C(C)=C/[C@@H](C)[C@@H](O)[C@@H](CC)[C@@H](O)[C@H](C)C/C(C)=C/C=C/[C@@H]2OC)C[C@@H](O[C@H]2C[C@@H](O)[C@H](OC(N)=O)[C@@H](C)O2)[C@@H]1C` [CMA, concanamycin A] as the molecule, how does the “Ca2+ oscillations” value ([2]; pre-treatment with 100 nM CMA, early ring forms and trophozoites) read?
A: Its value is “no effect”.
